Read-outs that look alike come from different tables or passages of the source.
Assays:
[1] = tested on: adult ovariectomized rats; conditions: rat, in vivo
[2] = target: human ERβ (Homo sapiens (Human), UniProt Q92731); experiment: Fluorescence polarization competitive binding assay, ERβ; conditions: for ERβ RBA (%): percent of the binding affinity of 17β-estradiol (RBA = 100%)
[3] = tested on: primary hippocampal neurons; experiment: Glutamate-induced neurotoxicity, LDH release; conditions: for LDH Release (% of Control): 48 h pretreatment, 5-min glutamate, LDH 24 h later; for concentration that elicited the maximal neuroprotective effects: from the dose-response analyses, administered alone
[4] = target: human ERα (Homo sapiens (Human), UniProt P03372); experiment: Fluorescence polarization competitive binding assay, ERα; conditions: for ERα RBA (%): percent of the binding affinity of 17β-estradiol (RBA = 100%)
[5] = tested on: adult ovariectomized rats; experiment: Uterine weight in adult ovariectomized rats; conditions: 6 mg/kg BW
[6] = 2 subcutaneous injections once daily, 24 h after 2nd injection
[7] = compared with vehicle-treated control (set as 0)

SMILES	LDH Release (% of Control) ([3]; 1 nM)	LDH Release (% of Control) ([3]; 10 nM)	LDH Release (% of Control) ([3]; 100 nM)	LDH Release (% of Control) ([3]; 1 μM)	LDH Release (% of Control) ([3]; 10 μM)	concentration that elicited the maximal neuroprotective effects [3]	also measured
C[C@]12CC[C@@H]3c4ccc(O)cc4CC[C@H]3[C@@H]1CC[C@@H]2O [17β-Estradiol]							impact on uterine weight [1]: markedly increased
O=C1Oc2cc(O)cc(Cc3ccccc3)c2CC1c1ccc(Cl)cc1 (stereo not shown) [Compd 3]							IC50 ([2]; Table 1, read-out: IC50 ERβ): 250 nM
O=c1nc2n(c3cc4ccccc4cc13)Cc1ccccc1-2 [Compd 12]							binding to ERβ [2]: either very weak or no binding
O=c1c(-c2ccc(O)cc2)coc2cc(O)ccc12 [Daidzein, daidzein]	338.39 ± 16.49 % of Control	333.98 ± 9.10 % of Control	301.42 ± 7.70 % of Control	318.49 ± 15.92 % of Control	325.41 ± 26.12 % of Control	100 nM	ERβ RBA (%) [2]: 1.867%; ERα RBA (%) [4]: 0.0949%
Oc1ccc([C@H]2COc3cc(O)ccc3C2)cc1 [Equol, equol]	453.50 ± 23.37 % of Control	403.78 ± 17.02 % of Control	331.59 ± 9.67 % of Control	381.80 ± 12.01 % of Control	390.21 ± 9.40 % of Control	100 nM	Selectivity (β/α) ([2]; Table 2): 10.09; IC50 ([2]; Table 2, full-length human ERβ, read-out: ERβ IC50): 582 nM; ERβ RBA (%) [2]: 5.571%; IC50 [4]: 5880 nM; ERα RBA (%) [4]: 0.4306%
CC(=O)[C@H]1CC[C@H]2[C@@H]3CCC4=CC(=O)CC[C@]4(C)[C@H]3CC[C@]12C [Progesteron, progesterone, reference compound]							binding to ERβ [2]: does not bind; binding to ERα [4]: does not bind
O=c1c(-c2ccc(O)cc2)coc2cc(O)cc(O)c12 [genistein]	361.03 ± 7.71 % of Control	350.02 ± 8.21 % of Control	347.24 ± 16.96 % of Control	356.79 ± 11.15 % of Control	377.84 ± 8.45 % of Control	100 nM	Uterine Dry Weight [5, 6]: 28.14 ± 2.04 mg; Uterine Wet Weight [5, 6]: 144.11 ± 10.18 mg; Uterine Dry Weight Increase (%) [5, 7]: 6.49 ± 7.71%; Uterine Wet Weight Increase (%) [5, 7]: 12.92 ± 7.97%

Source: patent US8552057B2, “Phytoestrogenic formulations for alleviation or prevention of neurodegenerative diseases” (priority 2006, dated 2013)
